# Results as given in ChEMBL document CHEMBL1201862, “PubChem BioAssay data set” (2004).
#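 Method: 48-hour compound exposure of cells in 96-well plates, five concentrations, linear interpolation of endpoints. GI50: concentration for 50% inhibition of growth.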 Calls of active or inactive are those of the source. Cut-off read from the data, not from the text of the source: active = GI50 up to about 1.1 µM and inactive = higher.
# Assays:
# Assay in all cases: NCI-60 cell line screen, 48 h
# A498 = tested on: A498
# SK-OV-3 = tested on: SK-OV-3
# HT-29 = tested on: HT-29
# EKVX = tested on: EKVX
# DMS-114 = tested on: DMS-114
# MOLT-4 = tested on: MOLT-4
# DMS-273 = tested on: DMS-273
# HCT-15 = tested on: HCT-15
# M14 = tested on: M14
# SK-MEL-5 = tested on: SK-MEL-5
# NCI-H226 = tested on: NCI-H226
# SN12C = tested on: SN12C
# LOX IMVI = tested on: LOX IMVI
# SNB-75 = tested on: SNB-75
# SF-268 = tested on: SF-268
# IGROV-1 = tested on: IGROV-1
# TK-10 = tested on: TK-10
# SNB-19 = tested on: SNB-19
# UACC-62 = tested on: UACC-62
# NCI-H522 = tested on: NCI-H522
# COLO 205 = tested on: COLO 205
# SF-295 = tested on: SF-295
# SK-MEL-2 = tested on: SK-MEL-2
# SW-620 = tested on: SW-620
# OVCAR-3 = tested on: OVCAR-3
# LXFL 529 = tested on: LXFL 529
# NCI-H23 = tested on: NCI-H23
# HOP-18 = tested on: HOP-18
# M19-MEL = tested on: M19-MEL
# KM-20L2 = tested on: KM-20L2
# CCRF-CEM = tested on: CCRF-CEM
# K562 = tested on: K562
# CAKI-1 = tested on: CAKI-1
# U-251 = tested on: U-251
# ACHN = tested on: ACHN
# RXF 631 = tested on: RXF 631
# OVCAR-8 = tested on: OVCAR-8
# RPMI-8226 = tested on: RPMI-8226
# SNB-78 = tested on: SNB-78
# SF-539 = tested on: SF-539
# UO-31 = tested on: UO-31
# NCI-H460 = tested on: NCI-H460
# HL-60 = tested on: HL-60
# SK-MEL-28 = tested on: SK-MEL-28
# Malme-3M = tested on: Malme-3M
# HOP-92 = tested on: HOP-92
# 786-0 = tested on: 786-0
# RXF 393 = tested on: RXF 393
# SR = tested on: SR
# OVCAR-4 = tested on: OVCAR-4
# A549 = tested on: A549
# DLD-1 = tested on: DLD-1
# KM12 = tested on: KM12
# OVCAR-5 = tested on: OVCAR-5
structure (smiles),measurement,setting,value
COC(=O)NN1C(=O)C(=P(c2ccccc2)(c2ccccc2)c2ccccc2)C(C(=O)OC)=C1C,GI50,A498,> 100 µM (inactive)
same,GI50,SK-OV-3,> 100 µM (inactive)
same,GI50,HT-29,> 100 µM (inactive)
same,GI50,EKVX,> 100 µM (inactive)
same,GI50,DMS-114,> 100 µM (inactive)
same,GI50,MOLT-4,> 100 µM (inactive)
same,GI50,DMS-273,> 100 µM (inactive)
same,GI50,HCT-15,> 100 µM
same,GI50,M14,> 100 µM (inactive)
same,GI50,SK-MEL-5,> 100 µM (inactive)
same,GI50,NCI-H226,> 100 µM (inactive)
same,GI50,SN12C,> 100 µM (inactive)
same,GI50,LOX IMVI,> 100 µM (inactive)
same,GI50,SNB-75,> 100 µM (inactive)
same,GI50,SF-268,> 100 µM (inactive)
same,GI50,IGROV-1,> 100 µM (inactive)
same,GI50,TK-10,> 100 µM (inactive)
same,GI50,SNB-19,> 100 µM (inactive)
same,GI50,UACC-62,> 100 µM (inactive)
same,GI50,NCI-H522,> 100 µM (inactive)
same,GI50,COLO 205,> 100 µM (inactive)
same,GI50,SF-295,> 100 µM (inactive)
same,GI50,SK-MEL-2,> 100 µM (inactive)
same,GI50,SW-620,> 100 µM (inactive)
same,GI50,OVCAR-3,> 100 µM (inactive)
same,GI50,LXFL 529,> 100 µM (inactive)
same,GI50,NCI-H23,> 100 µM (inactive)
same,GI50,HOP-18,> 100 µM (inactive)
same,GI50,M19-MEL,> 100 µM (inactive)
same,GI50,KM-20L2,> 100 µM (inactive)
same,GI50,CCRF-CEM,> 100 µM (inactive)
same,GI50,K562,> 100 µM (inactive)
same,GI50,CAKI-1,> 100 µM (inactive)
same,GI50,U-251,> 100 µM (inactive)
same,GI50,ACHN,> 100 µM (inactive)
same,GI50,RXF 631,> 100 µM (inactive)
same,GI50,OVCAR-8,> 100 µM (inactive)
same,GI50,RPMI-8226,60.5 µM (inactive)
same,GI50,SNB-78,> 100 µM (inactive)
same,GI50,SF-539,> 100 µM (inactive)
same,GI50,UO-31,> 100 µM (inactive)
same,GI50,NCI-H460,> 100 µM (inactive)
same,GI50,HL-60,52.5 µM (inactive)
same,GI50,SK-MEL-28,> 100 µM (inactive)
same,GI50,Malme-3M,> 100 µM (inactive)
same,GI50,HOP-92,12.6 µM (inactive)
O=C1C(=O)N(C(=O)c2ccc(Cl)c(Cl)c2)c2ccccc21,GI50,786-0,> 100 µM (inactive)
same,GI50,RXF 393,> 100 µM (inactive)
same,GI50,SK-OV-3,> 100 µM (inactive)
same,GI50,HT-29,> 100 µM (inactive)
same,GI50,EKVX,> 100 µM (inactive)
same,GI50,DMS-114,> 100 µM (inactive)
same,GI50,MOLT-4,> 100 µM (inactive)
same,GI50,DMS-273,> 100 µM (inactive)
same,GI50,M14,> 100 µM (inactive)
same,GI50,SK-MEL-5,> 100 µM (inactive)
same,GI50,NCI-H226,44.9 µM (inactive)
same,GI50,LOX IMVI,> 100 µM (inactive)
same,GI50,SNB-75,58.6 µM (inactive)
same,GI50,SF-268,> 100 µM (inactive)
same,GI50,IGROV-1,> 100 µM (inactive)
same,GI50,TK-10,> 100 µM (inactive)
same,GI50,SNB-19,> 100 µM (inactive)
same,GI50,SR,> 100 µM (inactive)
same,GI50,UACC-62,> 100 µM (inactive)
same,GI50,COLO 205,> 100 µM (inactive)
same,GI50,SF-295,> 100 µM (inactive)
same,GI50,OVCAR-4,> 100 µM (inactive)
same,GI50,SW-620,> 100 µM (inactive)
same,GI50,OVCAR-3,> 100 µM (inactive)
same,GI50,A549,> 100 µM (inactive)
same,GI50,LXFL 529,> 100 µM (inactive)
same,GI50,NCI-H23,> 100 µM (inactive)
same,GI50,HOP-18,> 100 µM (inactive)
same,GI50,M19-MEL,> 100 µM (inactive)
same,GI50,CCRF-CEM,> 100 µM (inactive)
same,GI50,K562,> 100 µM (inactive)
same,GI50,DLD-1,> 100 µM (inactive)
same,GI50,U-251,> 100 µM (inactive)
same,GI50,ACHN,> 100 µM (inactive)
same,GI50,RXF 631,> 100 µM (inactive)
same,GI50,OVCAR-8,> 100 µM (inactive)
same,GI50,KM12,> 100 µM (inactive)
same,GI50,RPMI-8226,> 100 µM (inactive)
same,GI50,OVCAR-5,> 100 µM (inactive)
same,GI50,SNB-78,> 100 µM (inactive)
same,GI50,SF-539,> 100 µM (inactive)
same,GI50,UO-31,> 100 µM (inactive)
same,GI50,HL-60,> 100 µM (inactive)
same,GI50,SK-MEL-28,> 100 µM (inactive)
